Test results: PubChem BioAssay AID1259407 (Chemical Carcinogenesis Research Information System (CCRIS), 2018)
Calls of active or inactive are those of the source. The rule behind the calls is not given here.

System: CCRIS mutagenicity, Ames/micronucleus/aberration tests
Assay: CCRIS mutagenicity studies

For C#C[C@]1(O)CC[C@H]2[C@@H]3CCc4cc(O)ccc4[C@H]3CC[C@@]21C, the mutagenic call (End Point: IN VITRO CHROMOSOMAL ABERRATIONS, Test System: CHINESE HAMSTER CELL DON (22;XY), Metabolic Activation: NONE) was “active; positive (ploidy changes)”, the mutagenic call (End Point: IN VITRO CHROMOSOMAL ABERRATIONS, Test System: CHO CELLS, Metabolic Activation: NONE) was “active; positive” and the mutagenic call (End Point: IN VITRO CHROMOSOMAL ABERRATIONS, Test System: HUMAN (FEMALE) PERIPHERAL BLOOD LYMPHOCYTES, Metabolic Activation: NONE) was “inactive; negative”. For the same compound, the mutagenic call (End Point: IN VITRO CHROMOSOMAL ABERRATIONS, Test System: HUMAN (FEMALE) PERIPHERAL BLOOD LYMPHOCYTES, Metabolic Activation: RAT, LIVER, S-9, NO NADP) was “inactive; negative”, the mutagenic call (End Point: IN VITRO CHROMOSOMAL ABERRATIONS, Test System: HUMAN (FEMALE) PERIPHERAL BLOOD LYMPHOCYTES, Metabolic Activation: RAT, LIVER, S-9, WITH NADP ADDITION) was “active; positive (structural changes)” and the mutagenic call (End Point: IN VITRO CHROMOSOMAL ABERRATIONS, Test System: HUMAN PERIPHERAL LYMPHOCYTES, Metabolic Activation: NONE) was “inactive; negative”. For the same compound, the mutagenic call (End Point: IN VITRO CHROMOSOMAL ABERRATIONS, Test System: HUMAN PERIPHERAL LYMPHOCYTES, Metabolic Activation: RAT, LIVER, S-9, AROCLOR 1254) was “inactive; negative”, the mutagenic call (End Point: IN VIVO MICRONUCLEUS, Test System: BONE MARROW POLYCHROMATIC ERYTHROCYTES, Species: MOUSE, Strain/Sex: NMRI/FEMALE, Route: INTRAGASTRIC) was “inactive; negative” and the mutagenic call (End Point: IN VIVO MICRONUCLEUS, Test System: BONE MARROW POLYCHROMATIC ERYTHROCYTES, Species: MOUSE, Strain/Sex: SWISS ALBINO, Route: ORAL (GAVAGE)) was “inactive; negative”. The mutagenic call (Test System: AMES SALMONELLA TYPHIMURIUM, Strain/Indicator: TA97, Metabolic Activation: HAMSTER, LIVER, S-9, AROCLOR 1254 (10 OR 30%), Method: PREINCUBATION) was “inactive; negative”, the mutagenic call (Test System: AMES SALMONELLA TYPHIMURIUM, Strain/Indicator: TA97, Metabolic Activation: NONE, Method: PREINCUBATION) was “inactive; negative” and the mutagenic call (Test System: AMES SALMONELLA TYPHIMURIUM, Strain/Indicator: TA97, Metabolic Activation: RAT, LIVER, S-9, AROCLOR 1254 (10%), Method: PREINCUBATION) was “inactive; negative”. For the same compound, the mutagenic call (Test System: AMES SALMONELLA TYPHIMURIUM, Strain/Indicator: TA97, Metabolic Activation: RAT, LIVER, S-9, AROCLOR 1254 (30%), Method: PREINCUBATION) was “inactive; negative”, the mutagenic call (Test System: AMES SALMONELLA TYPHIMURIUM, Strain/Indicator: TA98, Metabolic Activation: HAMSTER, LIVER, S-9, AROCLOR 1254 (10 OR 30%), Method: PREINCUBATION) was “inactive; negative” and the mutagenic call (Test System: AMES SALMONELLA TYPHIMURIUM, Strain/Indicator: TA98, Metabolic Activation: MOUSE, LIVER, S-9, Method: STANDARD PLATE) was “inactive; negative”. For the same compound, the mutagenic call (Test System: AMES SALMONELLA TYPHIMURIUM, Strain/Indicator: TA98, Metabolic Activation: NONE) was “inactive; negative”, the mutagenic call (Test System: AMES SALMONELLA TYPHIMURIUM, Strain/Indicator: TA98, Metabolic Activation: NONE, Method: PREINCUBATION) was “inactive; negative” and the mutagenic call (Test System: AMES SALMONELLA TYPHIMURIUM, Strain/Indicator: TA98, Metabolic Activation: NONE, Method: STANDARD PLATE) was “inactive; negative”. For the same compound, the mutagenic call (Test System: AMES SALMONELLA TYPHIMURIUM, Strain/Indicator: TA98, Metabolic Activation: RAT, LIVER, S-9, AROCLOR 1254 (10%), Method: PREINCUBATION) was “inactive; negative”, the mutagenic call (Test System: AMES SALMONELLA TYPHIMURIUM, Strain/Indicator: TA98, Metabolic Activation: RAT, LIVER, S-9, AROCLOR 1254 (30%), Method: PREINCUBATION) was “inactive; negative” and the mutagenic call (Test System: AMES SALMONELLA TYPHIMURIUM, Strain/Indicator: TA98, Metabolic Activation: RAT, LIVER, S-9, AROCLOR 1254, Method: STANDARD PLATE) was “inactive; negative”. For the same compound, the mutagenic call (Test System: AMES SALMONELLA TYPHIMURIUM, Strain/Indicator: TA98, Metabolic Activation: S-9) was “inactive; negative”, the mutagenic call (Test System: AMES SALMONELLA TYPHIMURIUM, Strain/Indicator: TA100, Metabolic Activation: HAMSTER, LIVER, S-9, AROCLOR 1254 (10 OR 30%), Method: PREINCUBATION) was “inactive; negative” and the mutagenic call (Test System: AMES SALMONELLA TYPHIMURIUM, Strain/Indicator: TA100, Metabolic Activation: MOUSE, LIVER, S-9, Method: STANDARD PLATE) was “inactive; negative”. The mutagenic call (Test System: AMES SALMONELLA TYPHIMURIUM, Strain/Indicator: TA100, Metabolic Activation: NONE) was “inactive; negative”, the mutagenic call (Test System: AMES SALMONELLA TYPHIMURIUM, Strain/Indicator: TA100, Metabolic Activation: NONE, Method: PREINCUBATION) was “inactive; negative” and the mutagenic call (Test System: AMES SALMONELLA TYPHIMURIUM, Strain/Indicator: TA100, Metabolic Activation: NONE, Method: STANDARD PLATE) was “inactive; negative”. The mutagenic call (Test System: AMES SALMONELLA TYPHIMURIUM, Strain/Indicator: TA100, Metabolic Activation: RAT, LIVER, S-9, AROCLOR 1254 (10%), Method: PREINCUBATION) was “inactive; negative”.
